Measured values reported in patent US5071841A, “Sulfur-containing heterocyclic compounds useful for the treatment of osteoporosis, and their production” (priority 1988, dated 1991).
Read-outs that look alike come from different tables or passages of the source.

What was measured:
[1] = test system: right and left humeri (radii and ulnae) of rat fetus; experiment: Bone resorption inhibition: 45Ca release from fetal rat bone in culture (method of Raisz); assay type: cell-based, Sprague-Dawley rat; settings: for activity at 10 µg/mL: Rattus norvegicus, 48 h, read-out: 45Ca released (% of control value)
Experimental: Thus, a Sprague-Dawley rat at day 19 of pregnancy was subcutaneously dosed with 50 μCi of ^45 Ca (a radioisotope of calcium, in CaCl2). On the next day, the animal was laparotomized and the fetuses were removed aseptically. The right and left humeri (radii and ulnae) of each rat fetus were dissected from the body under the dissection microscope. The connective tissue and cartilages were removed as far as possible to prepare bone culture specimens. Each piece of bone was incubated in 0.6 ml of BGJb medium Fitton-Jackson modification (the tradename owned by GIBCO Laboratories, U.S.A.) containing 2 mg/ml of bovine serum albumin at 37° C. for 24 hours. […] The radioactivities of ^45 Ca in the culture medium and bone were determined and the ratio (%) of ^45 Ca released from the bone to the medium was calculated according to the following formula. […] A=ratio (%) of ^45 Ca released from the bone to the medium B=^45 Ca count in the medium
C=^45 Ca count in the bone
The bones from the fetuses of the same litter were similarly incubated without addition of the test compound for two days and served as controls.
The values for 5 bones per group were expressed in mean. The ratio (%) of this value for the treatment group to the control value was determined.

mice = experiment: Oral toxicity in mice; assay type: in vivo; settings: 300 mg/kg
Excerpt: The compound (I) and salt according to the present invention has excellent bone resorption inhibitory activity. Thus, they have the action to inhibit the dissolution and diminution of bone in the body. Furthermore, compound (I) and salts thereof have bone formation promoting activity.

[2] = test system: oophorectomized Sprague-Dawley rats, right femur; experiment: Treatment of osteoporosis in oophorectomized rats (femur bone density, dry weight, ashes); assay type: in vivo; settings: daily dose 100 mg/kg orally; for Ashes / Dry weight: 18 doses, distal 1/3 of right femur
Experimental: Study on Treatment of Osteoporosis
Oophorectomy was performed on Sprague-Dawley rats at 10 weeks of age and starting from the following day, the rats were orally dosed with the test compound 6 days a week for 3 weeks, or a total of 18 days. On the day following the last dosing, the right femur was removed from each rat and subjected to soft X-ray photography with a soft X-ray apparatus (Softex CSM, Softex). Using a microdensitometer (PDM-5, Konica Medical), the transverse section of the femur on the soft X-ray film was scanned at a point one-fifth from the distal end (metaphysis) and from the density wave pattern, bone density was calculated according to the microdensitometric method described by Inoue et al. [Journal of Japanese Orthopedic Association (J Jpn. Orthop. Ass.) 57, 1923 (1983)].
After soft X-ray photographing, the 1/3 distal part of the femur was sectioned off at right angles with the major axis. After the bone marrows were washed off with a rinse pump, the femur section was put into a porcelain crucible, placed in a oven and dried at 110° C. for 24 hours. The dry weight was then determined.
The porcelain crucible containing the bone was transferred to a muffle furnace (FP-41, Yamato Chemicl) and heated at 500° C. for 3 hours and at 800° C. for 2 hours for calcification of the bone and the ashes were weighed.
The mean ± standard errors of the measured values for the right femurs of 7 rats per group were determined.

[3] = final concentration 10 μg/ml, two additional days at 37° C., mean of 5 bones per group, lower = more inhibition
[4] = Table 4, oophorectomy control 76.3, sham 85.7
[5] = Table 4, oophorectomy control 114.2, sham 131.4

Structure (SMILES) | activity at 10 µg/mL [1] [%] | activity at 10 µg/mL [1, 3] [%] | also measured
CCOP(=O)(Cc1ccc(NC(=O)[C@@H]2S[C@@H](C)C(=O)c3cc(C4CCCCC4)ccc32)cc1)OCC (relative stereo) [Example 23] | 65 |  | 
O=C1CSC(C(=O)O)c2ccc(Cl)cc21 (stereo not drawn) [Example 1, 6-chloro-3,4-dihydro-1H-2-benzothiopyran-4-one-1-carboxylic acid] |  | 84 | 
O=C1CSC(C(=O)Nc2cccnc2)c2ccc(C3CCCCC3)cc21 (stereo not drawn) [Example 10, 6-cyclohexyl-N-(3-pyridyl)-3,4-dihydro-1H-2-benzothiopyran-4-one-1-carboxamide] |  | 62 | 
O=C1CSC(C(=O)Nc2nccs2)c2ccc(C3CCCCC3)cc21 (stereo not drawn) [Example 12] |  | 84 | 
COc1ccc(-c2csc(NC(=O)C3SCC(=O)c4cc(C5CCCCC5)ccc43)n2)cc1OC (stereo not drawn) [Example 14] |  | 81 | 
O=C1CSC(C(=O)N2CCN(c3ccc(F)cc3)CC2)c2ccc(C3CCCCC3)cc21 (stereo not drawn) [Example 18] |  |  | death (mice): no death was encountered
O=C1CSC(C(=O)Nc2ccc3c(c2)OCO3)c2ccc(C3CCCCC3)cc21 (stereo not drawn) [Example 19] |  | 70 | 
O=C1CSC(C(=O)Nc2ccc(Cl)cc2)c2ccc(C3CCCCC3)cc21 (stereo not drawn) [Example 21] |  | 73 | 
CCOP(=O)(Cc1ccc(NC(=O)C2SCC(=O)c3cc(C4CCCCC4)ccc32)cc1)OCC (stereo not drawn) [Example 22] | 57 |  | death (mice): no death was encountered; Ashes ([2]; Table 2, oophorectomy control 74.3, sham 80.0): 82.4 mg; Dry weight ([2]; Table 2, oophorectomy control 107.7, sham 116.2): 120.0 mg; Bone density ([2]; Table 2, 6 days a week for 3 weeks, femur metaphysis, oophorectomy control 1.062, sham 1.304): 1.336
COc1ccc(NC(=O)C2SCC(=O)c3cc4c(cc32)CCCC4)cc1OC (stereo not drawn) [Example 28] |  | 79 | 
O=C1CSC(C(=O)N2CCN(c3ccc(F)cc3)CC2)c2cc3c(cc21)CCCC3 (stereo not drawn) [Example 30] |  | 75 | 
COP(=O)(OC)c1ccc(NC(=O)C2SCC(=O)c3cc4c(cc32)CCCC4)cc1 (stereo not drawn) [Example 31] | 64 |  | 
CCOP(=O)(OCC)c1ccc(NC(=O)C2SCC(=O)c3cc4c(cc32)CCCC4)cc1 (stereo not drawn) [Example 33] | 53 |  | 
CCOP(=O)(Cc1ccc(NC(=O)C2SCC(=O)c3cc4c(cc32)CCCC4)cc1)OCC (stereo not drawn) [Example 35] | 58 |  | 
CC(C)OP(=O)(Cc1ccc(NC(=O)C2SCC(=O)c3cc4c(cc32)CCCC4)cc1)OC(C)C (stereo not drawn) [Example 36] | 73 |  | 
CCOP(=O)(OCC)c1ccc(NC(=O)C2SCC(=O)c3cc(Cl)ccc32)cc1 (stereo not drawn) [Example 46] | 76 |  | 
CCCOP(=O)(OCCC)c1ccc(NC(=O)C2SCC(=O)c3cc4c(cc32)OCCO4)cc1 (stereo not drawn) [Example 50] | 73 |  | 
COc1ccc(CCN(C)C(=O)C2SCC(=O)c3cc(C4CCCCC4)ccc32)cc1OC (stereo not drawn) [Example 55] |  | 78 | 
CCOP(=O)(OCC)c1ccc(NC(=O)C2Cc3ccc(C4CCCCC4)cc3C(=O)CS2)cc1 (stereo not drawn) [Example 56, 7-cyclohexyl-N-(4-diethoxyphosphorylphenyl)-1,2,4,5-tetrahydro-3-benzothiepin-5-one-2-carboxamide] | 76 |  | 

Structure (SMILES) | activity at 10 µg/mL [1] [%] | activity at 10 µg/mL [1, 3] [%] | also measured
O=C(Nc1ccc2c(c1)OCO2)C1SCC(O)c2ccc(C3CCCCC3)cc21 (stereo not drawn) [Example 59, 7-cyclohexyl-N-(3,4-methylenedioxyphenyl)-c-4-hydroxy-3,4-dihydro-1H-2-benzothiopyran-r-1-carboxamide] |  |  | 45Ca released (% of control value) ([1]; final concentration 10 μg/ml, two additional days at 37° C., mean of 5 bones per group, lower = more inhibition, 2880 min): 64 % of control value
CCOP(=O)(Cc1ccc(NC(=O)C2SCC(=O)c3cc(C4CCCC4)ccc32)cc1)OCC (stereo not drawn) [Example 132] | 57 |  | 
CCOP(=O)(Cc1ccc(NC(=O)C2SCC(=O)c3cc(C4CCCCCC4)ccc32)cc1)OCC (stereo not drawn) [Example 138] | 63 |  | 
CCOP(=O)(Cc1ccc(NC(=O)C2SCC(=O)c3cc(C)ccc32)cc1)OCC (stereo not drawn) [Example 140] | 61 |  | 
CCOP(=O)(OCC)c1ccc(NC(=O)C2SCC(=O)c3cc(C(C)C)ccc32)cc1 (stereo not drawn) [Example 141] | 57 |  | 
CCOP(=O)(OCC)c1ccc(NC(=O)C2SCC(=O)c3cc(C(C)(C)C)ccc32)cc1 (stereo not drawn) [Example 143] | 44 |  | 
CCOP(=O)(CCc1ccc(NC(=O)C2SCC(=O)c3cc(C(C)(C)C)ccc32)cc1)OCC (stereo not drawn) [Example 144] | 52 |  | 
CCOP(=O)(Cc1ccc(NC(=O)C2SCC(=O)c3cc(C(C)(C)CC)ccc32)cc1)OCC (stereo not drawn) [Example 146] | 62 |  | Ashes ([2]; Table 3, oophorectomy control 74.3, sham 88.3): 84.1 mg; Dry weight ([2]; Table 3, oophorectomy control 112.3, sham 130.4): 128.2 mg
CCOP(=O)(Cc1ccc(NC(=O)C2SCC(=O)c3c(C)ccc(C)c32)cc1)OCC (stereo not drawn) [Example 150] | 71 |  | 
Cc1cc(C)c2c(c1)C(=O)CSC2C(=O)Nc1ccc(Cl)cc1 (stereo not drawn) [Example 153] |  | 63 | 
Cc1cc2c(cc1C)C(C(=O)Nc1ccc(Cl)c(Cl)c1)SCC2=O (stereo not drawn) [Example 155] |  | 80 | 
Cc1cc2c(cc1C)C(C(=O)Nc1ccc(C)c(Cl)c1)SCC2=O (stereo not drawn) [Example 157] |  | 71 | 
COP(=O)(OC)c1ccc(NC(=O)C2SCC(=O)c3cc(C)c(C)cc32)cc1 (stereo not drawn) [Example 160] | 54 |  | 
CCOP(=O)(OCC)c1ccc(NC(=O)C2SCC(=O)c3cc(C)c(C)cc32)cc1 (stereo not drawn) [Example 161] | 50 |  | Ashes [2, 4]: 83.7 mg; Dry weight [2, 5]: 127.5 mg
CCOP(=O)(Cc1ccc(NC(=O)C2SCC(=O)c3cc(C)c(C)cc32)cc1)OCC (stereo not drawn) [Example 163] | 50 |  | Ashes [2, 4]: 82.3 mg; Dry weight [2, 5]: 127.6 mg
O=C1CSC(C(=O)Nc2ccc(Cl)cc2)c2cc3c(cc21)CCC3 (stereo not drawn) [Example 183] |  | 47 | 
CCOP(=O)(Cc1cccc(NC(=O)C2SCC(=O)c3cc4c(cc32)CCCC4)c1)OCC (stereo not drawn) [Example 191] | 58 |  | 
CCOP(=O)(OCC)c1ccc(NC(=O)C2SCC(=O)c3cc4c(cc32)CCCCC4)cc1 (stereo not drawn) [Example 198] | 62 |  | 
CCOP(=O)(NC(=O)C1SCC(=O)c2cc(C3CCCCC3)ccc21)OCC (stereo not drawn) [Example 201, 6-cyclohexyl-N-diethoxyphosphoryl-3,4-dihyiro-1H-2-benzothiopyran-4-one-1-carboxamide] | 65 |  | 
